{"source": "patent US20040121968A1", "about": "“Antiangiogenesis by inhibiting protein kinase CK2 activity” (priority 2002, published 2004)", "tested_on": "retinal endothelial cells (REC)", "test": "REC angiogenic assays taken together (proliferation, secondary sprouting, migration, tube formation)", "type": "cell-based, bovine", "conditions": "all assays", "description": "Human REC (from normal, diabetic and patients with DR [“DR REC”]) and bovine REC were cultured in monolayer (for migration assay) or on top of Matrigel™ where cells form capillary-like tubes. They were treated with angiogenic growth factors or their combinations (at 10 ng/ml of each factor), and seeded with or without TN-C at 10-50 μg/mL. Cell numbers were determined by MTS assay (Promega Corp., Madison, Wis.). Tube length and number, and cell migration were assessed microscopically.\nTreatment of REC cultures. Duplicate REC cultures on plastic (for migration) or Matrigel™ with the same number of cells per dish are treated with previously established working concentrations of signaling inhibitors and/or select growth factor combinations. Treatments begin at the time of seeding the cells and medium is changed every other day. Single growth factors are used as negative controls since their modulation of TN-C effects was minimal. Working growth factor concentrations were as follows: VEGF, 1-50 ng/mL depending on the assay; PlGF, 100 ng/mL; FGF-2, 10-100 ng/mL; IGF-I, 25-100 ng/mL; PDGF-BB, 10-100 ng/mL. When used as combinations, each growth factor was supplied at 10 ng/mL for optimum synergy. […]", "note": "Starred links: 1 amine or outer side, 2 acyl side, 3 side chain; linkers in the order of their positions; H or OH if unused. Positions of bridges follow the written chain, without caps; N, C: chain ends. Non-standard residues stand in square brackets, D forms with d. Residues, ends and D or L forms follow the SMILES beside them. Chains are numbered I, II in the order given. Actinocin(9to1) = Cc1c2oc3c(C)ccc(C(=O)[*:1])c3nc-2c(C(=O)[*:2])c(N)c1=O; NMeV = CN[C@H](C(=O)O)C(C)C; Sar = CNCC(=O)O", "data": [{"smiles": "Cc1c2oc3c(C)ccc(C(=O)N[C@@H]4C(=O)N[C@H](C(C)C)C(=O)N5CCC[C@H]5C(=O)N(C)CC(=O)N(C)[C@@H](C(C)C)C(=O)O[C@@H]4C)c3nc-2c(C(=O)N[C@@H]2C(=O)N[C@H](C(C)C)C(=O)N3CCC[C@H]3C(=O)N(C)CC(=O)N(C)[C@@H](C(C)C)C(=O)O[C@@H]2C)c(N)c1=O", "note": "[Actinomycin D] (I: T[dV]P[Sar][NMeV] / II: T[dV]P[Sar][NMeV]; ester I:1-I:C, II:1-II:C; linker I:N-II:N via Actinocin(9to1))", "values": [{"measurement": "effect of inhibitor in the angiogenic assays", "value": "only minor changes"}]}]}
